The values below come from patent EP4483954A1 (Masarykova Univerzita, priority 2023, dated 2025).

Common to all, as to type: biochemical
For assay [1], the target named is T1, CLK2 (h) (Homo sapiens, UniProt P49760).
T1 construct: purchased Eurofins (KinaseProfiler)
Nature of the assay: radiometric kinase assay (KinaseProfiler, Eurofins), CLK2. Conditions: in vitro radiometric kinase assay, tested at 1 nM to 10 000 nM, no pre-incubation; read-out: inhibitory activities (IC50 values) CLK2. The method, then:
(§1) The compounds were profiled in the radiometric assays (KinaseProfiler, Eurofins).
(§2) Briefly, kinases were diluted in the buffer shown below prior to addition to the reaction mix: • CDKL3, TAF1L: 20 mM Tris/HCl pH 8.5, 0.2 mM EDTA, 0.1% β-mercaptoethanol, 0.01% Brij-35, 5% glycerol, 1 mg/ml BSA; • Haspin: 15 mM MOPS, 0.75 mM EDTA, 0.0075% Brij-35, 3.75% Glycerol, 150 mM NaCl, 0.1% β-mercaptoethanol, 1 mg/mLBSA; • CDKL4, CLK2, PIM1, TRB2: […], 1 mM EDTA, 0.01% Brij-35, 5% Glycerol, 0.1% β-mercaptoethanol, 1 mg/mL BSA.
(§3) All compounds were prepared to 50x final assay concentration in 100% DMSO. This working stock of the compound was added to the assay well as the first component in the reaction, followed by the remaining components as detailed in the general assay protocols below. There was no pre-incubation step between the compound and the kinase prior to initiation of the reaction.
CLK2 (h) was incubated with 8 mM MOPS pH 7.0, 0.2 mM EDTA, 20 µM […](p)EDEEE (SEQ ID NO. 2), 10 mM magnesium acetate and γ-^33P-ATP (specific activity and concentration as required). The reaction was initiated by the addition of the Mg/ATP mix. After incubation for 40 minutes at room temperature, the reaction was stopped by the addition of phosphoric acid to a concentration of 0.5%. An aliquot of the reaction was then spotted onto a filter and washed four times for 4 minutes in 0.425% phosphoric acid and once in methanol prior to drying and scintillation counting.
(§4) Kinase activity data were expressed as the percent remaining kinase activity in tested samples compared to the vehicle (DMSO) reactions. The compounds were tested at the following concentrations: 1 nM, 3 nM, 10 nM, 30 nM, 100 nM, 300 nM, 1000 nM, 3000 nM, and 10 000 nM; IC50 values and curve fits were then obtained.

Assay [2] has as its target T2, PIM1 (h) (Homo sapiens, UniProt P11309).
T2 construct: purchased Eurofins (KinaseProfiler)
Nature of the assay: radiometric kinase assay (KinaseProfiler, Eurofins), PIM1. The note with it: in vitro radiometric kinase assay, tested at 1 nM to 10 000 nM, no pre-incubation; read-out: inhibitory activities (IC50 values) PIM1. The method, then: as §1, §2, §3
PIM1 (h) was incubated with 8 mM MOPS pH 7.0, 0.2 mM EDTA, 100 µM KKRNRTLTV (SEQ ID NO. 4), 10 mM magnesium acetate and γ-^33P-ATP (specific activity and concentration as required). The reaction was initiated by the addition of the Mg/ATP mix. After incubation for 40 minutes at room temperature, the reaction was stopped by the addition of phosphoric acid to a concentration of 0.5%. An aliquot of the reaction was then spotted onto a filter and washed four times for 4 minutes in 0.425% phosphoric acid and once in methanol prior to drying and scintillation counting.
as §4

The target of assay [3] is T3, TRB2(h) (Homo sapiens, UniProt Q92519).
T3 construct: purchased Eurofins (KinaseProfiler)
T3 sequence (Q92519 1-343): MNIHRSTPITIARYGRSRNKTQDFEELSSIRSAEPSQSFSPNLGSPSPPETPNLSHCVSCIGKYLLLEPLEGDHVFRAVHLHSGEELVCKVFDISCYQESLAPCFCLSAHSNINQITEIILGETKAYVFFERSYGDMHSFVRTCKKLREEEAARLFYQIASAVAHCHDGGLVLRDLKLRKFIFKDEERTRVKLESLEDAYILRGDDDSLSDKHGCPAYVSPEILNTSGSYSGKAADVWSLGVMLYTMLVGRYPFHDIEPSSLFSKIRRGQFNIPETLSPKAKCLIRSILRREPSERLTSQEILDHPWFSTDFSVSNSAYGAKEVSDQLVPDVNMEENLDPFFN
The assay is described as follows: radiometric kinase assay (KinaseProfiler, Eurofins), TRB2. Conditions: in vitro radiometric kinase assay, tested at 1 nM to 10 000 nM, no pre-incubation; read-out: inhibitory activities (IC50 values) TRB2. The protocol:
as §1, §2, §3
TRB2(h) was incubated with 8 mM MOPS pH 7.0, 0.2 mM EDTA, 250 µM RRRFRPASPLRGPPK (SEQ ID NO. 1), 10 mM magnesium acetate and γ-^33P-ATP (specific activity and concentration as required). The reaction was initiated by the addition of the Mg/ATP mix. After incubation for 120 minutes at room temperature, the reaction was stopped by the addition of phosphoric acid to a concentration of 0.5%. An aliquot of the stopped reaction was spotted onto a filter and washed four times for 4 minutes in 0.425% phosphoric acid and once in methanol prior to drying and scintillation counting.
as §4

In assay [4] the target is T4, TAF1L(h) (Homo sapiens, UniProt Q8IZX4).
T4 construct: purchased Eurofins (KinaseProfiler)
The assay is described as follows: radiometric kinase assay (KinaseProfiler, Eurofins), TAF1L. The note with it: in vitro radiometric kinase assay, tested at 1 nM to 10 000 nM, no pre-incubation; read-out: inhibitory activities (IC50 values) TAF1L. The protocol:
as §1, §2, §3
TAF1L(h) was incubated with 20 mM Tris/HCl pH 8.5, 0.2 mM EDTA, 250 µM RRRFRPASPLRGPPK (SEQ ID NO. 1), 10 mM magnesium acetate and γ-^33P-ATP (specific activity and concentration as required). The reaction was initiated by the addition of the Mg/ATP mix. After incubation for 120 minutes at room temperature, the reaction was stopped by the addition of phosphoric acid to a concentration of 0.5%. An aliquot of the stopped reaction was spotted onto a filter and washed four times for 4 minutes in 0.425% phosphoric acid and once in methanol prior to drying and scintillation counting.
as §4

T4 sequence (Q8IZX4 whole entry): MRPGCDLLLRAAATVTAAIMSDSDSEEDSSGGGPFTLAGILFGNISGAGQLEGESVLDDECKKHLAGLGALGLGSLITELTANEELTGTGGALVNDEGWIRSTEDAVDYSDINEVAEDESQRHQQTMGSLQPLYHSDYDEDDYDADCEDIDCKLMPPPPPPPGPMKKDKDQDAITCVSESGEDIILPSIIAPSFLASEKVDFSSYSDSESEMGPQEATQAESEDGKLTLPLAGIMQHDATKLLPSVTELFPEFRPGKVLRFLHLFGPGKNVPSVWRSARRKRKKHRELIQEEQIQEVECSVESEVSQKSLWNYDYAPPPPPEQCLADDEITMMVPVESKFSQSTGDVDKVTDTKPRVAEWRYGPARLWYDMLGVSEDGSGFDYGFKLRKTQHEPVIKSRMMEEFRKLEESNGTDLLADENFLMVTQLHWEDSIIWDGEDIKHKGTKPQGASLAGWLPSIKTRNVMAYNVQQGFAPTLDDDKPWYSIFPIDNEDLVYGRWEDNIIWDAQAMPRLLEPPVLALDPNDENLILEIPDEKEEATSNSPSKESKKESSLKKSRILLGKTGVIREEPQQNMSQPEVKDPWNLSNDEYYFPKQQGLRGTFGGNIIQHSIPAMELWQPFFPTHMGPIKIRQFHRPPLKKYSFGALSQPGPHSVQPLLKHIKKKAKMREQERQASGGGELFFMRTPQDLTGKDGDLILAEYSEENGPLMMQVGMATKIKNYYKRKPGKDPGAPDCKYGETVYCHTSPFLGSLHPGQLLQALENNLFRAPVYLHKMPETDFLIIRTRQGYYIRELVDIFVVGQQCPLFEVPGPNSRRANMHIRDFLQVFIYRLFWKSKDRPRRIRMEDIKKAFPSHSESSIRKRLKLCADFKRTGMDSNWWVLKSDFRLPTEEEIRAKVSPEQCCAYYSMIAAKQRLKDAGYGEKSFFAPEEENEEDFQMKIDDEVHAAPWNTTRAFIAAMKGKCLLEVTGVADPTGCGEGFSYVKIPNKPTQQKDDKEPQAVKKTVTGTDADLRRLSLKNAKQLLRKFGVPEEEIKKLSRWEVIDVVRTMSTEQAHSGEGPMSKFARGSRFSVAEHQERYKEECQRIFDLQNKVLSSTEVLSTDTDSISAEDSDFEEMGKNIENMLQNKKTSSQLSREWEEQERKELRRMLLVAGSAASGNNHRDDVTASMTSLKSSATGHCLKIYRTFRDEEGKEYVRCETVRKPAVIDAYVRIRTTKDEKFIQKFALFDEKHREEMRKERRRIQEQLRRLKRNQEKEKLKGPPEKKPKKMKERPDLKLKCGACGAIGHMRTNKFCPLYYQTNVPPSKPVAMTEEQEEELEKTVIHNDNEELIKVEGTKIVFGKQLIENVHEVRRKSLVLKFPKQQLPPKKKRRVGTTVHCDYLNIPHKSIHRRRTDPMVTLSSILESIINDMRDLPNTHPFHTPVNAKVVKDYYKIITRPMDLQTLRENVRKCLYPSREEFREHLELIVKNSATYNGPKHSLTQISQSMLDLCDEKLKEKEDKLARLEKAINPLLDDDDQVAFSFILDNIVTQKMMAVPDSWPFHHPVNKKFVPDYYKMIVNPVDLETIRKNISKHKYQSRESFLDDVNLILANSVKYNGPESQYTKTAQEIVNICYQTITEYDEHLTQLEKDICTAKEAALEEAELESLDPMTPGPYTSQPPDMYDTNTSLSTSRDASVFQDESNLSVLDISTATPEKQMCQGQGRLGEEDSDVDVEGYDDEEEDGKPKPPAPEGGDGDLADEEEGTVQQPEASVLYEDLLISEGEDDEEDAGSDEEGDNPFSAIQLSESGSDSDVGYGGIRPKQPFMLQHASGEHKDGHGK
T2 sequence (P11309 whole entry): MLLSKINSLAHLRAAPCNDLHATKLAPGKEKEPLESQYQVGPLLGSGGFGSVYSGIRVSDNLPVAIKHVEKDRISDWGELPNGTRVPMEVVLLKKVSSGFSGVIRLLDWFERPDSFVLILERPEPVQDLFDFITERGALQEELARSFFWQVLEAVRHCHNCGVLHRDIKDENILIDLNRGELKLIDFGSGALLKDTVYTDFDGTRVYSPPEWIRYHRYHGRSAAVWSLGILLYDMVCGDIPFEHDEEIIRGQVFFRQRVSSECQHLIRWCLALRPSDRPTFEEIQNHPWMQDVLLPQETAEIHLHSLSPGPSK
T1 sequence (P49760 whole entry): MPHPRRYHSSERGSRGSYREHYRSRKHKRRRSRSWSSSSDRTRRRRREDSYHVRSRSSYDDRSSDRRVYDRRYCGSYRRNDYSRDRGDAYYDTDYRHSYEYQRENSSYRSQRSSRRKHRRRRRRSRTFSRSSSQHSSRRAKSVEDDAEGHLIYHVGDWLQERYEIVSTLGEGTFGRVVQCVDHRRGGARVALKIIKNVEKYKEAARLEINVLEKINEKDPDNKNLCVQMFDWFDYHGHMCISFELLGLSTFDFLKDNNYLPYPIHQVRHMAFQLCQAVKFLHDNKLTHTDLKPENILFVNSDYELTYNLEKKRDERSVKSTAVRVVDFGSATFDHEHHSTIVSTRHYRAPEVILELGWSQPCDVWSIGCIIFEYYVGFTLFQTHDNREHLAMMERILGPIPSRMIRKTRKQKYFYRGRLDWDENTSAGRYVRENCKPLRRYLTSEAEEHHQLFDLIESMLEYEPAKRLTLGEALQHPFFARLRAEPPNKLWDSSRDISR

Usually IC50 stands for the concentration that gives 50% inhibition. `Cn1cc(-c2ccc3scc(-c4ccnc(C#N)c4)c3n2)cn1`: the half-maximal inhibitory concentration (IC50) in assay [1] is 3000 to 10000 nM; in assay [2] it was 500 to 3000 nM; in assay [3], 100 to 499 nM; in assay [4] it was 100 to 499 nM.

Regarding `Cn1cc(-c2ccc3scc(-c4cnn(Cc5ccccc5)c4)c3n2)cn1`, the IC50 in assay [1] lay in the range of 3000 to 10000 nM; in assay [2], 20 to 99 nM; in assay [3] it was 500 to 3000 nM; in assay [4], 100 to 499 nM.

Consider `Cn1cc(-c2ccc3scc(-c4ccccc4)c3n2)cn1` [Preparative Example 2, 5-(1-methyl-1H-pyrazol-4-yl)-3-phenylthieno[3,2-b]pyridine], for which the IC50 lay in the range of 3000 to 10000 nM in assay [1], 500 to 3000 nM in assay [2], 500 to 3000 nM in assay [3] and 100 to 499 nM in assay [4].

`Cn1cc(-c2ccc3scc(C4=CCNCC4)c3n2)cn1` [Preparative Example 9, 5-(1-methyl-1H-pyrazol-4-yl)-3-(1,2,3,6-tetrahydropyridin-4-yl)-thieno[3.2-b]pyridine]: the 50% inhibitory concentration (IC50) in assay [1] lay within 3000 to 10000 nM; in assay [2] it was 500 to 3000 nM; in assay [3] it was 3000 to 10000 nM; in assay [4] it was 500 to 3000 nM.

Turning to `Cn1cc(-c2ccc3scc(-c4cccnc4)c3n2)cn1` [Preparative Example 11, 5-(1-methyl-1H-pyrazol-4-yl)-3-(pyridin-3-yl)thieno[3,2-b]pyridine], the concentration for half-maximal inhibition (IC50) fell in the range of 3000 to 10000 nM in assay [1], 500 to 3000 nM in assay [2], 500 to 3000 nM in assay [3] and 500 to 3000 nM in assay [4].

With `Cn1cc(-c2ccc3scc(-c4ccncc4)c3n2)cn1` [Preparative Example 13, 5-(1-methyl-1H-pyrazol-4-yl)-3-(pyridin-4-yl)thieno[3,2-b]pyridine], the IC50 lay within 3000 to 10000 nM in assay [1], 100 to 499 nM in assay [2], 500 to 3000 nM in assay [3] and 100 to 499 nM in assay [4].

Turning to `Cc1cc(-c2csc3ccc(-c4cnn(C)c4)nc23)ccn1` [Preparative Example 15, 5-(1-methyl-1H-pyrazol-4-yl)-3-(2-methylpyridin-4-yl)-thieno[3,2-b]pyridine], the IC50 in assay [1] is 500 to 3000 nM; in assay [2], 100 to 499 nM; in assay [3], 100 to 499 nM; in assay [4], 100 to 499 nM.

Take `COc1cc(-c2csc3ccc(-c4cnn(C)c4)nc23)ccn1` [Preparative Example 17, 3-(2-methoxypyridin-4-yl)-5-(1-methyl-1H-pyrazol-4-yl)thieno[3.2-b]pyridine]: the 50% inhibitory concentration (IC50) was in the range of 500 to 3000 nM in assay [1], 100 to 499 nM in assay [2], 500 to 3000 nM in assay [3] and 100 to 499 nM in assay [4].

`Cn1cc(-c2ccc3scc(-c4ccnc(F)c4)c3n2)cn1` [Preparative Example 22, 3-(2-fluoropyridin-4-yl)-5-(1-methyl-1H-pyrazol-4-yl)thieno[3,2-b]pyridine]: the concentration for half-maximal inhibition (IC50) lay in the range of 3000 to 10000 nM in assay [1], 100 to 499 nM in assay [2], 100 to 499 nM in assay [3] and 100 to 499 nM in assay [4].

In the case of `Cn1cc(-c2ccc3scc(-c4ccnc(CN)c4)c3n2)cn1` [Preparative Example 28, (4-(5-(1-methyl-1H-pyrazol-4-yl)thieno[3,2-b]pyridin-3-yl)pyridin-2-yl)methanamine], the IC50 lay in the range of 3000 to 10000 nM in assay [1], 100 to 499 nM in assay [2], 500 to 3000 nM in assay [3] and 500 to 3000 nM in assay [4].

As to `Cc1cc(-c2csc3ccc(-c4cnn(C)c4)nc23)cc(C)n1` [Preparative Example 30, 3-(2,6-dimethylpyridin-4-yl)-5-(1-methyl-1H-pyrazol-4-yl)thieno-[3,2-b]pyridine], the half-inhibitory concentration (IC50) in assay [1] lay within 3000 to 10000 nM; in assay [2], 100 to 499 nM; in assay [3], 500 to 3000 nM; in assay [4] it was 100 to 499 nM.

`Cc1cnccc1-c1csc2ccc(-c3cnn(C)c3)nc12` [Preparative Example 32, 5-(1-methyl-1H-pyrazol-4-yl)-3-(3-methylpyridin-4-yl)thieno[3,2-b]pyridine]: the IC50 lay within 3000 to 10000 nM in assay [1], 500 to 3000 nM in assay [2], 3000 to 10000 nM in assay [3] and 500 to 3000 nM in assay [4].

As for `Cn1cc(-c2ccc3scc(-c4ccncc4C#N)c3n2)cn1` [Preparative Example 34, 4-(5-(1-methyl-1H-pyrazol-4-yl)thieno[3,2-b]pyridin-3-yl)nicotino-nitrile], the IC50 was in the range of 3000 to 10000 nM in assay [1], 500 to 3000 nM in assay [2], 3000 to 10000 nM in assay [3] and 500 to 3000 nM in assay [4].

In the case of `Cn1cc(-c2ccc3scc(-c4ccncc4F)c3n2)cn1` [Preparative Example 36, 3-(3-fluoropyridin-4-yl)-5-(1-methyl-1H-pyrazol-4-yl)thieno[3,2-b]pyridine], the concentration for half-maximal inhibition (IC50) lay in the range of 500 to 3000 nM in assay [1], 100 to 499 nM in assay [2], 100 to 499 nM in assay [3] and 100 to 499 nM in assay [4].

As to `Cn1cc(-c2ccc3scc(-c4ccnnc4)c3n2)cn1` [Preparative Example 40, 5-(1-methyl-1H-pyrazol-4-yl)-3-(pyridazin-4-yl)thieno[3,2-b]-pyridine], the IC50 in assay [1] was 3000 to 10000 nM; in assay [2] it was 500 to 3000 nM; in assay [3], 500 to 3000 nM; in assay [4] it was 100 to 499 nM.

As for `Cn1cc(-c2ccc3scc(-c4ccc5ncnn5c4)c3n2)cn1` [Preparative Example 53, 3-([1,2,4]-triazolo[1,5-a]pyridin-6-yl)-5-(1-methyl-1H-pyrazol-4-yl)thieno[3,2-b]pyridine], the half-maximal inhibitory concentration (IC50) in assay [1] lay in the range of 500 to 3000 nM; in assay [2], 100 to 499 nM; in assay [3] it was 20 to 99 nM; in assay [4] it was 100 to 499 nM.

Consider `Cn1cc(-c2ccc3scc(-c4cnn(C)c4)c3n2)cn1` [Preparative Example 63, 3,5-bis(1-methyl-1H-pyrazol-4-yl)thieno[3,2-b]pyridine], for which the half-maximal inhibitory concentration (IC50) fell in the range of 500 to 3000 nM in assay [1], 100 to 499 nM in assay [2], 500 to 3000 nM in assay [3] and 100 to 499 nM in assay [4].

`Cn1cc(-c2ccc3scc(-c4ccns4)c3n2)cn1` [Preparative Example 67, 3-(isothiazol-5-yl)-5-(1-methyl-1H-pyrazol-4-yl)thieno[3,2-b]pyridine]: the 50% inhibitory concentration (IC50) in assay [1] lay within 500 to 3000 nM; in assay [2], 100 to 499 nM; in assay [3], 20 to 99 nM; in assay [4] it was 20 to 99 nM.

As to `Cn1cc(-c2ccc3scc(-c4cncs4)c3n2)cn1` [Preparative Example 69, 5-(1-methyl-1H-pyrazol-4-yl)-3-(thiazol-5-yl)thieno[3,2-b]pyridine], the IC50 was in the range of 500 to 3000 nM in assay [1], 100 to 499 nM in assay [2], 100 to 499 nM in assay [3] and 20 to 99 nM in assay [4].
